Laboratory results reported in patent US7015236B2, “N-heteroarylnicotinamide derivatives” (Sankyo Agro Company, Limited, priority 2001, dated 2006).
Where two headings read alike, the source gives them in different places.

What was measured:
[1] = tested on: green peach aphid (Myzus persicae); assay: Insecticidal test for green peach aphid (10 ppm and 3 ppm), Test Example 2; assay type: in vivo; details: same manner as Test Example 1; for mortality at 3 ppm: Chemical concentration of spray 3 ppm; for mortality at 10 ppm: Chemical concentration of spray 10 ppm
Protocol: (§1) Water (30 ml) was put into a beaker, and a leaf of Komatsuna (Brassica var. rapa) was placed within the beaker such that the stem was immersed in water. On the leaf of Komatsuna, five green peach aphids were released and allowed to fertilize. Two days after the releasing, imagoes were removed and the number of larvae was counted.
(§2) A surfactant Newcol NE-710F (trademark, produced by Nippon Nyukazai Co., Ltd., 2%) was dissolved in aqueous acetone (95% aqueous solution, 98%) to prepare solution 1. Next, a dispersant Gousenol GLO5-S (trademark, produced by Nippon Nyukazai Co., Ltd., 0.2% aqueous solution, 0.2%) was dissolved in water (99.8%) to prepare solution 2.
(§3) To each of the compounds (8 mg) of the present invention, the above solution 1 (0.4 ml), the above solution 2 (0.4 ml) and water (8 ml) were added. Further, the compounds of the present invention were each diluted with water so that the concentration of each compound was 100 ppm {as a spreading agent, Gramin S (trademark, produced by Sankyo Co., Ltd.) was added so as to have a concentration of 0.01%}.
(§4) The above chemical liquid (8 ml) was sprayed on the leaf of Komatsuna by use of a rotary spraying tower. The leaf of Komatsuna was put back in the beaker. Then, the beaker was placed in a thermostatic chamber of 25° C. for 16 hours in the light and for 8 hours in the dark. 5 Days after the spraying, the number of dead insects was counted to calculate the mortality (%).
Insecticidal Test for Green Peach Aphid (Myzus persicae) (10 ppm and 3 ppm)
The test was carried out in the same manner as in Test Example 1 except for setting the dilution concentration to 10 ppm and 3 ppm. Incidentally, Comparative Compound a and Comparative Compound b (Compound No. 6) listed in Table 1 of Japanese Provisional Patent Publication No. Hei 10-195072 were used as a comparison. [drawing 25]

[2] = tested on: green peach aphid (Myzus persicae); assay: Insecticidal test for green peach aphid (100 ppm), Test Example 1; assay type: in vivo; details: 120 h
Protocol: Insecticidal test for green peach aphid (Myzus persicae) (100 ppm)
as §1, §2, §3, §4

[3] = 100 ppm spray on Komatsuna leaf, larvae, counted 5 days after spraying, 25° C., read-out: mortality (%)

Row | Compound | mortality at 100 ppm [2, 3] | further results
1 | Cc1cnc(NC(=O)c2cnccc2C(F)(F)F)s1 [Comparative Compound a, reference compound] |  | mortality at 3 ppm [1]: 0%; mortality at 10 ppm [1]: 6%
2 | O=C(Nc1oncc1C1CCCC1)c1cnccc1C(F)(F)F [Example 42, N-(4-Cyclopentyl-5-isoxazolyl)-4-(trifluoromethyl)nicotinamide] | ≥ 95% | 
3 | CC(C)c1cc(NC(=O)c2cnccc2C(F)(F)F)on1 [Example 6, N-(3-Isopropyl-5-isoxazolyl)-4-(trifluoromethyl)nicotinamide] | ≥ 95% | 
4 | Cc1noc(NC(=O)c2cnccc2C(F)(F)F)c1F [Example 66, N-(4-Fluoro-3-methyl-5-isoxazolyl)-4-(trifluoromethyl)nicotinamide] | ≥ 95% | 
5 | COc1ccc(-c2cnoc2NC(=O)c2cnccc2C(F)(F)F)cc1 [Example 55, N-[4-(4-Methoxyphenyl)-5-isoxazolyl]-4-(trifluoromethyl)nicotinamide] | ≥ 95% | 
6 | O=C(Nc1onc(C2CC2)c1Cl)c1cnccc1C(F)(F)F [Example 12, N-(4-Chloro-3-cyclopropyl-5-isoxazolyl)-4-(trifluoromethyl)nicotinamide] | ≥ 95% | 
7 | Cc1cnsc1N(C(=O)c1cnccc1C(F)(F)F)C(=O)c1cnccc1C(F)(F)F [Example 50, 5-[N,N-Bis(4-trifluoromethylnicotinoyl)]amino-4-methylthioisoxazole] | ≥ 95% | 
8 | CCCCc1cnoc1NC(=O)c1cnccc1C(F)(F)F [Example 39, N-(4-Butyl-5-isoxazolyl)-4-(trifluoromethyl)nicotinamide] | ≥ 95% | 
9 | O=C(Nc1oncc1-c1ccccc1)c1cnccc1C(F)(F)F [Example 53, N-(4-Phenyl-5-isoxazolyl)-4-(trifluoromethyl)nicotinamide] | ≥ 95% | 
10 | Cc1noc(NC(=O)c2cnccc2C(F)(F)F)c1Cl [Example 3, N-(4-Chloro-3-methyl-5-isoxazolyl)-4-(trifluoromethyl)nicotinamide] | ≥ 95% | 
11 | O=C(c1cnccc1C(F)(F)F)N(C(=O)c1cnccc1C(F)(F)F)c1ccno1 [Example 30, 5-[N,N-Bis(4-trifluoromethylnicotinoyl)]aminoisoxazole] | ≥ 95% | 
12 | CCc1cc(NC(=O)c2cnccc2C(F)(F)F)on1 [Example 5, N-(3-Ethyl-5-isoxazolyl)-4-(trifluoromethyl)nicotinamide] | ≥ 95% | 
13 | O=C(Nc1oncc1-c1ccc(OC(F)(F)F)cc1)c1cnccc1C(F)(F)F [Example 58, N-[4-(4-Trifluoromethoxyphenyl)-5-isoxazolyl]-4-(trifluoromethyl)nicotinamide] | ≥ 95% | 
14 | N#Cc1noc(NC(=O)c2cnccc2C(F)(F)F)c1F [Example 23, N-(4-Fluoro-3-cyano-5-isoxazolyl)-4-(trifluoromethyl)nicotinamide] | ≥ 95% | 
15 | O=C(Nc1oncc1-c1cccnc1)c1cnccc1C(F)(F)F [Example 59, N-[4-(3-Pyridyl)-5-isoxazolyl]-4-(trifluoromethyl)nicotinamide] | ≥ 95% | 
16 | CCOCN(C(=O)c1cnccc1C(F)(F)F)c1cc(C)no1 [Example 2, N-Ethoxymethyl-N-(3-methyl-5-isoxazolyl)-4-(trifluoromethyl)nicotinamide] | ≥ 95% | 
17 | Cc1cc(N(CC#N)C(=O)c2cnccc2C(F)(F)F)on1 [Example 19, N-Cyanomethyl-N-(3-methyl-5-isoxazolyl)-4-(trifluoromethyl)nicotinamide] | ≥ 95% | 
18 | O=C(Nc1nncs1)c1cnccc1C(F)(F)F [Comparative Compound b, reference compound] |  | mortality at 3 ppm [1]: 0%; mortality at 10 ppm [1]: 0%
19 | O=C(Nc1oncc1-c1ccc(C(F)(F)F)cc1)c1cnccc1C(F)(F)F [Example 57, N-[4-(4-Trifluoromethylphenyl)-5-isoxazolyl]-4-(trifluoromethyl)nicotinamide] | ≥ 95% | 
20 | CSc1cnoc1NC(=O)c1cnccc1C(F)(F)F [Example 49, N-(4-Methylthio-5-isoxazolyl)-4-(trifluoromethyl)nicotinamide] | ≥ 95% | 
21 | O=C(Nc1oncc1Oc1ccccc1)c1cnccc1C(F)(F)F [Example 51, N-(4-Phenoxy-5-isoxazolyl)-4-(trifluoromethyl)nicotinamide] | ≥ 95% | 

Row | Compound | mortality at 100 ppm [2, 3] | further results
22 | O=C(Nc1oncc1Br)c1cnccc1C(F)(F)F [Example 24, N-(4-Bromo-5-isoxazolyl)-4-(trifluoromethyl)nicotinamide] | ≥ 95% | 
23 | COCc1noc(NC(=O)c2cnccc2C(F)(F)F)c1OC [Example 48, N-(4-Methoxy-3-methoxymethyl-5-isoxazolyl)-4-(trifluoromethyl)nicotinamide] | ≥ 95% | 
24 | O=C(Nc1ccno1)c1cnccc1C(F)(F)F [Example 4, N-(5-Isoxazolyl)-4-(trifluoromethyl)nicotinamide] | ≥ 95% | mortality at 3 ppm [1]: 100%; mortality at 10 ppm [1]: 100%
25 | O=C(Nc1oncc1-n1cccn1)c1cnccc1C(F)(F)F [Example 64, N-[4-(1H-Pyrazol-1-yl)-5-isoxazolyl]-4-(trifluoromethyl)nicotinamide] | ≥ 95% | 
26 | O=C(Nc1oncc1C1=CCCCC1)c1cnccc1C(F)(F)F [Example 62, N-[4-(Cyclohex-1-ene-1-yl)-5-isoxazolyl]-4-(trifluoromethyl)nicotinamide] | ≥ 95% | 
27 | CCCCCCc1cnoc1N(C(=O)c1cnccc1C(F)(F)F)C(=O)c1cnccc1C(F)(F)F [Example 44, 5-[N,N-Bis(4-trifluoromethylnicotinoyl)]amino-4-hexylisoxazole] | ≥ 95% | 
28 | O=C(Nc1oncc1Cl)c1cnccc1C(F)(F)F [Example 11, N-(4-Chloro-5-isoxazolyl)-4-(trifluoromethyl)nicotinamide] | ≥ 95% | 
29 | CCCc1cnoc1NC(=O)c1cnccc1C(F)(F)F [Example 35, N-(4-Propyl-5-isoxazolyl)-4-(trifluoromethyl)nicotinamide] | ≥ 95% | 
30 | Cc1cc(NC(=O)c2cnccc2C(F)(F)F)on1 [Example 1, N-(3-Methyl-5-isoxazolyl)-4-(trifluoromethyl)nicotinamide] | ≥ 95% | mortality at 3 ppm [1]: 100%; mortality at 10 ppm [1]: 100%
31 | CC(=O)N(C(=O)c1cnccc1C(F)(F)F)c1cc(C)no1 [Example 27, N-Acetyl-N-(3-methyl-5-isoxazolyl)-4-(trifluoromethyl)nicotinamide] | ≥ 95% | 
32 | O=C(Nc1oncc1C1CC1)c1cnccc1C(F)(F)F [Example 37, N-(4-Cyclopropyl-5-isoxazolyl)-4-(trifluoromethyl)nicotinamide] | ≥ 95% | 
33 | CON=Cc1cc(NC(=O)c2cnccc2C(F)(F)F)on1 [Example 28, N-(3-Methoxyiminomethyl-5-isoxazolyl)-4-(trifluoromethyl)nicotinamide] | ≥ 95% | 
34 | O=Cc1cc(NC(=O)c2cnccc2C(F)(F)F)on1 [Example 7, N-(3-Formyl-5-isoxazolyl)-4-(trifluoromethyl)nicotinamide] | ≥ 95% | 
35 | COc1cnoc1NC(=O)c1cnccc1C(F)(F)F [Example 47, N-(4-Methoxy-5-isoxazolyl)-4-(trifluoromethyl)nicotinamide] | ≥ 95% | 
36 | CON=Cc1noc(NC(=O)c2cnccc2C(F)(F)F)c1Cl [Example 60, N-(4-Chloro-3-methoxyiminomethyl-5-isoxazolyl)-4-(trifluoromethyl)nicotinamide] | ≥ 95% | 
37 | Cc1ccc(-c2cnoc2NC(=O)c2cnccc2C(F)(F)F)cc1 [Example 54, N-[4-(4-Methylphenyl)-5-isoxazolyl]-4-(trifluoromethyl)nicotinamide] | ≥ 95% | 
38 | O=C(Nc1oncc1-c1ccc(Cl)cc1)c1cnccc1C(F)(F)F [Example 56, N-[4-(4-Chlorophenyl)-5-isoxazolyl]-4-(trifluoromethyl)nicotinamide] | ≥ 95% | 
39 | O=C(Nc1cc(C=NO)no1)c1cnccc1C(F)(F)F [Example 8, N-(3-Hydroxyiminomethyl-5-isoxazolyl)-4-(trifluoromethyl)nicotinamide] |  | mortality at 100 ppm [2]: ≥ 95%
40 | O=C(Nc1oncc1Cc1ccccc1)c1cnccc1C(F)(F)F [Example 45, N-(4-Benzyl-5-isoxazolyl)-4-(trifluoromethyl)nicotinamide] | ≥ 95% | 
41 | N#Cc1noc(NC(=O)c2cnccc2C(F)(F)F)c1Cl [Example 22, N-(4-Chloro-3-cyano-5-isoxazolyl)-4-(trifluoromethyl)nicotinamide] | ≥ 95% | 
42 | Cc1cc(N(C)C(=O)c2cnccc2C(F)(F)F)on1 [Example 16, N-Methyl-N-(3-methyl-5-isoxazolyl)-4-(trifluoromethyl)nicotinamide] | ≥ 95% | 
